{"source": "paper doi:10.1101/2025.09.24.678246", "about": "(bioRxiv, 2025)", "key": {"M. africanum": {"test_system": "M. africanum", "assay": "MIC screening against M. africanum", "assay_type": "cell-based", "details": "Mycobacterium tuberculosis, MTBC"}, "M. bovis 0AF2122": {"test_system": "M. bovis 0AF2122", "assay": "microbe, parasite or virus in culture", "assay_type": "cell-based", "details": "Mycobacterium tuberculosis variant bovis"}, "Mtb H37Rv [1]": {"test_system": "Mtb H37Rv", "assay": "C48 biotin deficient TB efficacy study", "assay_type": "in vivo, BALB/c mice", "details": "25mg/kg"}, "BioA": {"molecular_target": "BioA (Mycobacterium tuberculosis, UniProt P9WQ81)", "sequence (P9WQ81 whole entry, looked up)": "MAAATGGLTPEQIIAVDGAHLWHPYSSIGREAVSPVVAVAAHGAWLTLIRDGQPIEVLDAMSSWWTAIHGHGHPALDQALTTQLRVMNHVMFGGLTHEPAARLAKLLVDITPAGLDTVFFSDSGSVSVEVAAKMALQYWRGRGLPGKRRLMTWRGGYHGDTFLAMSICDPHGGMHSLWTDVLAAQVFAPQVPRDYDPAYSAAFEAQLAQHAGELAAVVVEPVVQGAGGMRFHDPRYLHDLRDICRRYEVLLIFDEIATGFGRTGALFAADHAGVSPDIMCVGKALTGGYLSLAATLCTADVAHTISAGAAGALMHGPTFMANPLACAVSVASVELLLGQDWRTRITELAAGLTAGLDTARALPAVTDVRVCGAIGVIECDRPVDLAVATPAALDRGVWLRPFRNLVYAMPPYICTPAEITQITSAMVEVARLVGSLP", "assay": "BioA inhibition assay (coupled BioA/BioD fluorescence displacement, IC50)", "assay_type": "biochemical", "details": "50 nM BioA"}, "in vivo": {"assay": "in vivo", "details": "female, CD-1, mouse; for Vd / clearance / half-life: iv; for AUC(0-inf) / bioavailability: po, 25 mg/kg"}, "Mtb H37Rv [2]": {"test_system": "Mtb H37Rv", "assay": "microbe, parasite or virus in culture", "assay_type": "cell-based, Mycobacterium tuberculosis", "details": "biotin-free medium; for MIC50: Mycobacterium tuberculosis, H37RV"}, "Mtb H37Rv [3]": {"test_system": "Mtb H37Rv", "assay_type": "in vivo, BALB/c mice", "details": "for bacterial burden per mouse, Fig. 5B: 10 mg/kg"}, "[4]": {"details": "p.o. 25 mg/kg, CD-1 mice"}, "[5]": {"details": "day 7 (values identical to Control: baseline)"}}, "note": "Values joined by “and” are separate entries in the source; they are usually repeats but may differ in a detail not shown here. Equal entries are not always repeated. Where two headings read alike, the source gives them in different places."}
{"smiles": "CC(=O)NC[C@H]1CN(c2ccc(N3CCOCC3)c(F)c2)C(=O)O1", "note": "[Linezolid, reference compound]", "values": [{"measurement": "MIC", "setting": "M. africanum", "result": 1.56, "unit": "µM"}, {"measurement": "MIC", "setting": "M. bovis 0AF2122", "result": 1.56, "unit": "µM"}]}
{"smiles": "NNC(=O)c1ccncc1", "note": "[INH, isoniazid, reference compound]", "values": [{"measurement": "bacterial burden per mouse, Fig. 5C", "setting": "Mtb H37Rv [1]; [5]", "result": "360 and 1090 and 400 and 320 and 700 and 200"}, {"measurement": "bacterial burden per mouse, Fig. 5D (second organ, not given)", "setting": "Mtb H37Rv [1]; [5]", "result": 1}, {"measurement": "bacterial burden per mouse, Fig. 5D (second organ, not given)", "setting": "Mtb H37Rv [1]; day 21", "result": 1}, {"measurement": "bacterial burden per mouse, Fig. 5C", "setting": "Mtb H37Rv [1]; day 28", "result": 1}, {"measurement": "bacterial burden per mouse, Fig. 5D (second organ, not given)", "setting": "Mtb H37Rv [1]; day 28", "result": 1}]}
{"smiles": "O=C1CCc2cc(N3CCN(C(=O)c4ccc(F)c(Br)c4)CC3)ccc21", "note": "[C21]", "values": [{"measurement": "IC50", "setting": "BioA", "result": 81, "unit": "nM"}, {"measurement": "activity", "setting": "BioA; C21 1.58114 nM", "result": 106, "unit": "%"}, {"measurement": "activity at 0.00158114 µM", "setting": "BioA; C21 1.58114 nM", "result": 106, "unit": "%"}, {"measurement": "activity", "setting": "BioA; C21 5 nM", "result": "98% and 96.4%"}, {"measurement": "activity at 0.005 µM", "setting": "BioA; C21 5 nM", "result": 102, "unit": "%"}, {"measurement": "activity", "setting": "BioA; C21 15.8114 nM", "result": "91.7% and 90.1%"}, {"measurement": "activity at 0.0158114 µM", "setting": "BioA; C21 15.8114 nM", "result": 91.3, "unit": "%"}, {"measurement": "activity", "setting": "BioA; C21 50 nM", "result": "59.9% and 51.5%"}, {"measurement": "activity at 0.05 µM", "setting": "BioA; C21 50 nM", "result": 59.5, "unit": "%"}, {"measurement": "activity", "setting": "BioA; C21 158.114 nM", "result": "31.6% and 29.9%"}, {"measurement": "activity at 0.158114 µM", "setting": "BioA; C21 158.114 nM", "result": 32, "unit": "%"}, {"measurement": "activity", "setting": "BioA; C21 500 nM", "result": 25, "unit": "%"}, {"measurement": "activity at 0.5 µM", "setting": "BioA; C21 500 nM", "result": 25.1, "unit": "%"}, {"measurement": "activity", "setting": "BioA; C21 1581.14 nM", "result": "18.2% and 16.8%"}, {"measurement": "activity at 1.58114 µM", "setting": "BioA; C21 1581.14 nM", "result": 19.4, "unit": "%"}, {"measurement": "activity", "setting": "BioA; C21 5000 nM", "result": "7.65% and 7.4%"}, {"measurement": "activity at 5 µM", "setting": "BioA; C21 5000 nM", "result": 8.48, "unit": "%"}, {"measurement": "Vd", "setting": "in vivo", "result": 0.37, "unit": "L/kg"}, {"measurement": "clearance", "setting": "in vivo", "result": 5.3, "unit": "mL/min/kg"}, {"measurement": "half-life", "setting": "in vivo", "result": 49.2, "unit": "min"}, {"measurement": "AUC(0-inf)", "setting": "in vivo", "result": 108000, "unit": "ng·h/mL"}, {"measurement": "bioavailability", "setting": "in vivo", "result": "> 100", "unit": "%"}, {"measurement": "MIC50", "setting": "Mtb H37Rv [2]", "result": 1.9, "unit": "µM"}, {"measurement": "increase in potency against Mtb versus 6", "setting": "Mtb H37Rv [2]", "result": 6, "unit": "fold"}]}
{"smiles": "CO[C@H]1/C=C/O[C@@]2(C)Oc3c(C)c(O)c4c(O)c(c(/C=N/N5CCN(C)CC5)c(O)c4c3C2=O)NC(=O)/C(C)=C\\C=C\\[C@H](C)[C@H](O)[C@@H](C)[C@@H](O)[C@@H](C)[C@H](OC(C)=O)[C@@H]1C", "note": "[Rifampicin, rifampicin, reference compound]", "values": [{"measurement": "bacterial burden per mouse, Fig. 5B", "setting": "Mtb H37Rv [3]; day 14 (values identical to Vehicle Control: baseline)", "result": "24500 and 14500 and 16500 and 43500 and 12750"}, {"measurement": "bacterial burden per mouse, Fig. 5B", "setting": "Mtb H37Rv [3]; day 28", "result": "8250 and 7500 and 19750 and 6250 and 14250"}, {"measurement": "bacterial burden per mouse, Fig. 5B", "setting": "Mtb H37Rv [3]; day 42", "result": "2875 and 750 and 950 and 2450 and 2025"}, {"measurement": "spleen CFU", "setting": "Mtb H37Rv [3]; Rifampicin 10mg/kg p.o., Day 42, standard acute model, BALB/c, per mouse", "result": 0, "unit": "CFU"}]}
{"smiles": "CC(=O)c1ccc(N2CCN(C(=O)c3ccc4c(c3)OCO4)CC2)cc1", "note": "[compound 6]", "values": [{"measurement": "IC50", "setting": "BioA", "result": 110, "unit": "nM"}, {"measurement": "plasma concentration", "setting": "[4]; 0 h", "result": 0}, {"measurement": "plasma concentration", "setting": "[4]; 3 h, 25 mg/kg", "result": "32.3 and 18.2 and 24.6"}, {"measurement": "plasma concentration", "setting": "[4]; 24 h", "result": 1}, {"measurement": "Vd", "setting": "in vivo", "result": 0.54, "unit": "L/kg"}, {"measurement": "clearance", "setting": "in vivo", "result": 30.6, "unit": "mL/min/kg"}, {"measurement": "half-life", "setting": "in vivo", "result": 12, "unit": "min"}, {"measurement": "AUC(0-inf)", "setting": "in vivo", "result": 460, "unit": "ng·h/mL"}, {"measurement": "bioavailability", "setting": "in vivo", "result": 3.4, "unit": "%"}, {"measurement": "MIC50", "setting": "Mtb H37Rv [2]", "result": 12, "unit": "µM"}]}
